Measured values reported in ChEMBL document CHEMBL4610025, “Discovery of a follistatin-derived myostatin inhibitory peptide” (Bioorg Med Chem Lett, 2020).
Calls of active or inactive are those of the source. The calls are words filed in the database; no cut-off is given here. Non-standard residues stand in square brackets, D forms with d. Residues, ends and D or L forms follow the SMILES beside them. Chg = N[C@H](C(=O)O)C1CCCCC1

Columns and labels:
[1] = molecular target: Growth/differentiation factor 8 (Homo sapiens) (UniProt O14793); experiment: Inhibition of myostatin (unknown origin) expressed in HEK293 cells at 10 uM incubated for 4 hrs by dual luciferase reporter gene assay; type: cell-based
HEK293 = experiment: Inhibition of activin A (unknown origin) expressed in HEK293 cells at 0.3 to 10 uM incubated for 4 hrs by dual luciferase reporter gene assay; type: cell-based; conditions: Homo sapiens
[2] = molecular target: Transforming growth factor beta-1 proprotein (Homo sapiens) (UniProt P01137); experiment: Inhibition of TGFbeta1 (unknown origin) expressed in HEK293 cells at 0.3 to 10 uM incubated for 4 hrs by dual luciferase reporter gene assay; type: cell-based
Sequence of Transforming growth factor beta-1 proprotein (Homo sapiens) (P01137 279-390 limits assumed): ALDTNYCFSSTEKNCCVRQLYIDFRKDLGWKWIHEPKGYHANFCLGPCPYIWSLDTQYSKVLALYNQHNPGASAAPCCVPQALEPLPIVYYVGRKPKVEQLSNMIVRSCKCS

[3] = molecular target: Growth/differentiation factor 8 (Homo sapiens) (UniProt O14793); experiment: (§1) Inhibition of myostatin (unknown origin) expressed in HEK293 cells incubated for 4 hrs by dual luciferase reporter gene assay; type: cell-based
[4] = molecular target: T1, Growth/differentiation factor 8 (Homo sapiens, UniProt O14793); experiment: as §1; type: cell-based
T1 sequence (O14793 whole entry): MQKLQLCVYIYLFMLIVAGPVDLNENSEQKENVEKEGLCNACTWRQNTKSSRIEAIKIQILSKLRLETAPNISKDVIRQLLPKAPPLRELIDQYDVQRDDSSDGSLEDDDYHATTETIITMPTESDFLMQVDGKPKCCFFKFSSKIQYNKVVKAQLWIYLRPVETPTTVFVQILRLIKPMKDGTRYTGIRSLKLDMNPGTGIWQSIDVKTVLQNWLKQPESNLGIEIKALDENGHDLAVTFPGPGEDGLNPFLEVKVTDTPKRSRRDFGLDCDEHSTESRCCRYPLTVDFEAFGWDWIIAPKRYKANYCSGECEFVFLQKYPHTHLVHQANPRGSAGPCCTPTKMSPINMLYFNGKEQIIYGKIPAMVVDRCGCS

Mus musculus = experiment: Effect on muscle growth in C57BL/6J mouse assessed as increase in tibialis anterior muscle weight at 20 nmol administered intramuscularly measured at day 28 relative to control; type: functional

Structure (SMILES)	inhibition [1]	also measured
CC[C@H](C)[C@H](NC(=O)[C@H](CCSC)NC(=O)[C@H](Cc1c[nH]c2ccccc12)NC(=O)[C@H](CCCCN)NC(=O)[C@H](Cc1ccccc1)NC(=O)[C@H](CC(C)C)NC(=O)[C@@H](NC(=O)[C@H](CC(N)=O)NC(=O)[C@H](CC(=O)O)NC(=O)[C@H](CC(N)=O)NC(=O)[C@@H](N)C(C)C)[C@@H](C)O)C(=O)N[C@@H](Cc1ccccc1)C(=O)N[C@@H](CC(N)=O)C(=O)NCC(N)=O (H-VNDNTLFKWMIFNG-NH2)	Active	inhibition (HEK293): inactive; inhibition [2]: inactive; inhibition [3]: Dose-dependent effect; IC50 [4]: 6.2 µM; Activity (Mus musculus): 112%
CC[C@H](C)[C@H](NC(=O)[C@H](CCC(N)=O)NC(=O)[C@@H](NC(=O)[C@H](CCCCN)NC(=O)[C@@H](NC(=O)[C@@H](Cc1c[nH]c2ccccc12)NC(=O)[C@H](CCCNC(=N)N)NC(=O)[C@@H](NC(=O)[C@H](Cc1ccc(O)cc1)NC(=O)[C@@H](N)Cc1c[nH]c2ccccc12)[C@@H](C)CC)[C@@H](C)CC)C1CCCCC1)C(=O)N[C@@H](Cc1c[nH]c2ccccc12)C(=O)N[C@@H](CO)C(=O)N[C@@H](CCCCN)C(=O)N[C@H](C(=O)N[C@@H](CCCNC(=N)N)C(=O)N[C@@H](CC(C)C)C(N)=O)C1CCCCC1 (H-WYIR[dW]IK[Chg]QIWSK[Chg]RL-NH2)		IC50 [4]: 3.56 µM
CC[C@H](C)[C@H](NC(=O)[C@H](CCSC)NC(=O)[C@H](Cc1c[nH]c2ccccc12)NC(=O)[C@H](C)NC(=O)[C@H](Cc1ccccc1)NC(=O)[C@H](CC(C)C)NC(=O)[C@@H](NC(=O)[C@H](CC(N)=O)NC(=O)[C@H](CC(=O)O)NC(=O)[C@H](CC(N)=O)NC(=O)[C@@H](N)C(C)C)[C@@H](C)O)C(=O)N[C@@H](Cc1ccccc1)C(=O)N[C@@H](CC(N)=O)C(=O)NCC(N)=O (H-VNDNTLFAWMIFNG-NH2)	inactive	
CC[C@H](C)[C@H](NC(=O)[C@H](CCSC)NC(=O)[C@H](Cc1c[nH]c2ccccc12)NC(=O)[C@H](CCCCN)NC(=O)[C@H](Cc1ccccc1)NC(=O)[C@H](CC(C)C)NC(=O)[C@@H](NC(=O)[C@H](CC(N)=O)NC(=O)[C@H](CC(=O)O)NC(=O)[C@H](C)NC(=O)[C@@H](N)C(C)C)[C@@H](C)O)C(=O)N[C@@H](Cc1ccccc1)C(=O)N[C@@H](CC(N)=O)C(=O)NCC(N)=O (H-VADNTLFKWMIFNG-NH2)	inactive	
CC[C@H](C)[C@H](NC(=O)[C@H](C)NC(=O)[C@H](Cc1c[nH]c2ccccc12)NC(=O)[C@H](CCCCN)NC(=O)[C@H](Cc1ccccc1)NC(=O)[C@H](CC(C)C)NC(=O)[C@@H](NC(=O)[C@H](CC(N)=O)NC(=O)[C@H](CC(=O)O)NC(=O)[C@H](CC(N)=O)NC(=O)[C@@H](N)C(C)C)[C@@H](C)O)C(=O)N[C@@H](Cc1ccccc1)C(=O)N[C@@H](CC(N)=O)C(=O)NCC(N)=O (H-VNDNTLFKWAIFNG-NH2)	inactive	
CC[C@H](C)[C@H](NC(=O)[C@H](CCSC)NC(=O)[C@H](Cc1c[nH]c2ccccc12)NC(=O)[C@H](CCCCN)NC(=O)[C@H](Cc1ccccc1)NC(=O)[C@H](C)NC(=O)[C@@H](NC(=O)[C@H](CC(N)=O)NC(=O)[C@H](CC(=O)O)NC(=O)[C@H](CC(N)=O)NC(=O)[C@@H](N)C(C)C)[C@@H](C)O)C(=O)N[C@@H](Cc1ccccc1)C(=O)N[C@@H](CC(N)=O)C(=O)NCC(N)=O (H-VNDNTAFKWMIFNG-NH2)	inactive	
CC[C@H](C)[C@H](NC(=O)[C@H](CCSC)NC(=O)[C@H](Cc1c[nH]c2ccccc12)NC(=O)[C@H](CCCCN)NC(=O)[C@H](Cc1ccccc1)NC(=O)[C@H](CC(C)C)NC(=O)[C@@H](NC(=O)[C@H](CC(N)=O)NC(=O)[C@H](CC(=O)O)NC(=O)[C@H](CC(N)=O)NC(=O)[C@@H](N)C(C)C)[C@@H](C)O)C(=O)N[C@@H](Cc1ccccc1)C(=O)N[C@@H](CC(N)=O)C(=O)N[C@@H](C)C(N)=O (H-VNDNTLFKWMIFNA-NH2)	Active	
